Measurements reported in ChEMBL document CHEMBL6092215, “A Prostate-Specific Membrane Antigen-Targeting Small Molecule-Drug Conjugate Strategy to Overcome the Hematological Toxicity of Olaparib” (J Med Chem, 2024).
Active and inactive are the calls of the source. The calls are words filed in the database; no cut-off is given here.

Legend:
LNCaP = assay: Antiproliferative activity against human LNCaP cells with high PSMA expression assessed as effect on cell viability incubated for 72 hrs by MTT assay; type: functional, cell-based
CWR22R [1] = assay: Antiproliferative activity against human 22Rv1 cells with high PSMA expression assessed as effect on cell viability incubated for 72 hrs by MTT assay; type: functional, cell-based; settings: 22Rv1, 72 h
PC-3 = assay: Antiproliferative activity against PSMA negative human PC-3 cells assessed as effect on cell viability incubated for 72 hrs by MTT assay; type: functional
[2] = Antiproliferative activity against PSMA negative human RWPE-1 cells assessed as effect on cell viability incubated for 72 hrs by MTT assay; type: toxicity, cell-based; settings: RWPE-1 cells (PSMA negative)
CWR22R [3] = assay: Induction of DNA damage in human 22Rv1 cells assessed as increase in number of gamma-H2AX foci at 100 uM incubated for 12 hrs by DAPI staining based immunofluorescence analysis; type: functional, cell-based
CWR22R [4] = assay: Antiproliferative activity against human 22Rv1 cells assessed as reduction in cell viability at 125 uM in presence of DUPA; type: functional, cell-based
[5] = Drug uptake in PSMA positive human 22Rv1 cells at 10 uM measured after 1 to 6 hrs by LC-MS/MS analysis; type: ADME, cell-based; settings: cwr22r, time 1-6 hrs
[6] = Drug uptake in PSMA negative human PC-3 cells at 10 uM measured after 1 to 6 hrs by LC-MS/MS analysis; type: ADME, cell-based; settings: pc-3, 10 µM, time 1-6 hrs
[7] = Subacute toxicity in male ICR mouse assessed as decrease in body weight at 100 mg/kg, po administered via gavage for 30 days relative to control; type: organism-based; parameters: scale not given: the % may be the effect or the level left; settings: in vivo, 720 h, time 30 day
[8] = Subacute toxicity in male ICR mouse assessed as decrease in red blood cells at 100 mg/kg, po administered via gavage for 30 days by blood routine test relative to control; type: organism-based; parameters: scale not given: the % may be the effect or the level left; settings: in vivo, 720 h, time 30 day
[9] = Subacute toxicity in male ICR mouse assessed as decrease in hemoglobin level at 100 mg/kg, po administered via gavage for 30 days by blood routine test relative to control; type: organism-based; parameters: scale not given: the % may be the effect or the level left; settings: in vivo, 720 h, time 30 day
[10] = Subacute toxicity in male ICR mouse assessed as decrease in hematocrit level at 100 mg/kg, po administered via gavage for 30 days by blood routine test relative to control; type: organism-based; parameters: scale not given: the % may be the effect or the level left; settings: in vivo, 720 h, time 30 day
[11] = Subacute toxicity in male ICR mouse assessed as decrease in WBC level at 100 mg/kg, po administered via gavage for 30 days by blood routine test relative to control; type: organism-based; parameters: scale not given: the % may be the effect or the level left; settings: in vivo, 720 h, time 30 day
[12] = Subacute toxicity in male ICR mouse assessed as decrease in neutrophil level at 100 mg/kg, po administered via gavage for 30 days by blood routine test relative to control; type: organism-based; parameters: scale not given: the % may be the effect or the level left; settings: in vivo, 720 h, time 30 day
[13] = Subacute toxicity in male ICR mouse assessed as decrease in lymphocytes level at 100 mg/kg, po administered via gavage for 30 days by blood routine test relative to control; type: organism-based; parameters: scale not given: the % may be the effect or the level left; settings: in vivo, 720 h, time 30 day
CWR22R [14] = assay: Antitumor activity against human 22Rv1 cells xenografted in male BALB/c nude mouse at 100 mg/kg administered via gavage; type: functional, organism-based
[15] = Toxicity in male BALB/c nude mouse xenografted with human 22Rv1 cells assessed as decrease in body weight at 100 mg/kg administered via gavage; type: organism-based; settings: in vivo, po
CWR22R [16] = assay: Antitumor activity against human 22Rv1 cells xenografted in male BALB/c nude mouse assessed as tumor growth inhibition at 100 mg/kg administered via gavage relative to control; type: functional; settings: 22Rv1, po, read-out: TGI
[17] = Toxicity in male BALB/c nude mouse xenografted with human 22Rv1 cells assessed as decrease in lymphocytes at 100 mg/kg administered via gavage by routine blood test; type: organism-based; settings: in vivo, po
[18] = Toxicity in male BALB/c nude mouse xenografted with human 22Rv1 cells assessed as decrease in granulocytes at 100 mg/kg administered via gavage by routine blood test; type: organism-based; settings: in vivo, po
[19] = Toxicity in male BALB/c nude mouse xenografted with human 22Rv1 cells assessed as decrease in red blood cells at 100 mg/kg administered via gavage by routine blood test; type: organism-based; settings: in vivo, po
[20] = Toxicity in male BALB/c nude mouse xenografted with human 22Rv1 cells assessed as decrease in hemoglobin at 100 mg/kg administered via gavage by routine blood test; type: organism-based; settings: in vivo, po

IC50 (LNCaP): 56.5 µM
Drug uptake [5]: Active
Drug uptake [6]: Active
SMILES: O=C(c1cc(Cc2n[nH]c(=O)c3ccccc23)ccc1F)N1CCN(C(=O)C2CC2)CC1 [OLAPARIB]
IC50 (CWR22R [1]): 61.6 µM
CC50 (PC-3): 91.5 µM
CC50 at 72 h [2]: 85.5 µM
Activity (CWR22R [3]): Active
Activity (CWR22R [4]): Active; Drug Mode Of Action Appears To Be Independent Of Binding To Psma Receptor
Activity [7]: 8%
Activity [8]: 15.73%
Activity [9]: 11.69%
Activity [10]: 12.82%
Activity [11]: 28.12%
Activity [12]: 10.4%
Activity [13]: 32.71%
Activity (CWR22R [14]): Active
Activity [15]: Non-toxic
inhibition in vivo at 100 mg/kg (CWR22R [16]): 61%
Activity [17]: Toxic
Activity [18]: Toxic
Activity [19]: Toxic
Activity [20]: Toxic
